# Patent US20010007866A1, “TREATMENT OF PRURITUS WITH VITAMIN D AND ANALOGS THEREOF” (priority 1995, published 2001)
# Where “and” joins values, the source holds several entries; their conditions need not be identical. Equal entries are not always repeated.
# Columns and labels:
# [1] = test system: pruritus of sunburn; experiment: Topical application to pruritus of sunburn (subject two); assay type: in vivo, human
# Protocol: A corn oil solution of vitamin D3 was prepared by adding 1 gram of vitamin D3 to 20 ml corn oil with mixing for approximately 1 hour followed by brief heating to approximately 45° C. until dissolved. One ml of this solution was mixed with 47 ml corn oil and 2 ml isopropyl myristate to obtain a final concentration of vitamin D3 of 1000 μg/ml.
# Subject two developed a sunburn on the back and experienced severe pruritus. […] The pruritus abated completely about one-half hour after these applications.
# [2] = test system: pruritus caused by poison ivy; experiment: Topical application to poison ivy rash, pruritic score on 100 mm visual analog scale (subject one); assay type: in vivo, human
# Protocol: Testing Procedure: Subject one contracted poison ivy rash and tested the various preparations above. Preparations were evaluated by the subject after application to an area of rash approximately 1-10 square centimeters. Comparisons were made of antipruritic effect by marking on a 100 mm visual analog scale consisting of a plain line with the left end labeled “None” and the right end labeled “Maximal”. The subject was instructed to mark the scale at a point which they felt corresponded to the level of itchiness that they were feeling at the treatment site at the appropriate time. The samples were coded so that the subject was not aware of what a given sample was and they were not told if they were expected to have an effect. They carried out the evaluation unaided, applying the samples in any order they chose except where side-by-side comparisons were made as indicated in the tables. From the marked scale the pruritic score was determined as the number of mm from the left side of the scale to the subject's mark. Thus a higher value indicates a high level or pruritus and a low value indicates a low level to no pruritus.
# The patient and test procedures were as described in example 3. The results of tests using oil-based formulations are in tables 2a through 2c.
# The patient and test procedures were as described in example 3. The results of tests using oil-based formulations are in Table 3.
# Serial dilutions of Vita Moist Cream were made from an initial 5 ml quantity of Vita Moist Cream by adding successive 5 ml quantities of the diluent, Care Deeply Cream, to the starting formulation and subsequent 5 ml aliquots of successive dilutions as follows:
# After coding with numbers 1-6 as above, the preparations were randomly sorted and again coded […] and tested two at a time in alphabetical order. […] The minimal effective concentration in this formulation appears to be between 1.25 and 2.5 μg/ml.
smiles,measurement,setting,value
"C=C1CC[C@H](O)C/C1=C/C=C1\CCC[C@]2(C)[C@@H]([C@H](C)CCCC(C)C)CC[C@@H]12 [Vitamin D3, cholecalciferol]",antipruritic effect (in words),[1]; 1000 μg/ml in corn oil,immediately and completely alleviated
same,time until the pruritus returned,[1]; after 1000 μg/ml in corn oil,one and one-half
same,"antipruritic effect (in words, no scores recorded)","[2]; 869 μg/ml in Eucerin lotion, compared with Eucerin plus corn oil control",stopped the pruritus instantly and completely
same,antipruritic effect (in words),"[2]; Keri lotion as vehicle, Table 1b",rapid and complete antipruritic effect
same,pruritic score (100 mm visual analog scale),"[2]; Keri lotion with added isopropyl myristate, 52 μg/ml, time 0 min",77 mm
same,pruritic score (100 mm visual analog scale),"[2]; Keri lotion with added isopropyl myristate, 52 μg/ml, time 1 min",35 mm
same,pruritic score (100 mm visual analog scale),"[2]; Keri lotion with added isopropyl myristate, 52 μg/ml, time 5 min",0 mm
same,pruritic score (100 mm visual analog scale),"[2]; Keri lotion with added isopropyl myristate, 52 μg/ml, time 10 min",0 mm
same,pruritic score (100 mm visual analog scale),"[2]; Keri lotion with added isopropyl myristate, 502 μg/ml, time 0 min",80 mm
same,pruritic score (100 mm visual analog scale),"[2]; Keri lotion with added isopropyl myristate, 502 μg/ml, time 1 min",0 mm
same,pruritic score (100 mm visual analog scale),"[2]; Keri lotion with added isopropyl myristate, 502 μg/ml, time 5 min",0 mm
same,pruritic score (100 mm visual analog scale),"[2]; Keri lotion with added isopropyl myristate, 502 μg/ml, time 10 min",0 mm
same,pruritic score (100 mm visual analog scale),"[2]; Keri lotion with added isopropyl myristate, 869 μg/ml, time 0 min",82 mm
same,pruritic score (100 mm visual analog scale),"[2]; Keri lotion with added isopropyl myristate, 869 μg/ml, time 1 min",0 mm
same,pruritic score (100 mm visual analog scale),"[2]; Keri lotion with added isopropyl myristate, 869 μg/ml, time 5 min",0 mm
same,pruritic score (100 mm visual analog scale),"[2]; Keri lotion with added isopropyl myristate, 869 μg/ml, time 10 min",0 mm
same,pruritic score (100 mm visual analog scale),"[2]; Keri lotion, 10 μg/ml, no isopropyl myristate, time 0 min, single tests",78 mm and 80 mm
same,pruritic score (100 mm visual analog scale),"[2]; Keri lotion, 10 μg/ml, no isopropyl myristate, time 1 min, single tests",0 mm
same,pruritic score (100 mm visual analog scale),"[2]; Keri lotion, 10 μg/ml, no isopropyl myristate, time 5 min, single tests",0 mm
same,pruritic score (100 mm visual analog scale),"[2]; Keri lotion, 10 μg/ml, no isopropyl myristate, time 10 min, single tests",0 mm
same,pruritic score (100 mm visual analog scale),"[2]; Keri lotion, 10 μg/ml, with isopropyl myristate, time 0 min, single tests",80 mm and 77 mm
same,pruritic score (100 mm visual analog scale),"[2]; Keri lotion, 10 μg/ml, with isopropyl myristate, time 5 min, single tests",0 mm
same,pruritic score (100 mm visual analog scale),"[2]; Keri lotion, 10 μg/ml, with isopropyl myristate, time 10 min, single tests",0 mm
same,"pruritic score, Mean","[2]; Keri lotion, 10 μg/ml, mean of four tests (with and without isopropyl myristate), time 0 min",79 mm
same,"pruritic score, Mean","[2]; Keri lotion, 10 μg/ml, mean of four tests (with and without isopropyl myristate), time 1 min",0 mm
same,"pruritic score, Mean","[2]; Keri lotion, 10 μg/ml, mean of four tests (with and without isopropyl myristate), time 5 min",0 mm
same,"pruritic score, Mean","[2]; Keri lotion, 10 μg/ml, mean of four tests (with and without isopropyl myristate), time 10 min",0 mm
same,pruritic score (100 mm visual analog scale),"[2]; Keri lotion, 521 μg/ml, no isopropyl myristate, time 0 min",80 mm
same,pruritic score (100 mm visual analog scale),"[2]; Keri lotion, 521 μg/ml, no isopropyl myristate, time 1 min",81 mm
same,pruritic score (100 mm visual analog scale),"[2]; Keri lotion, 521 μg/ml, no isopropyl myristate, time 5 min",0 mm
same,pruritic score (100 mm visual analog scale),"[2]; Keri lotion, 521 μg/ml, no isopropyl myristate, time 10 min",0 mm
same,antipruritic effect (in words),"[2]; Keri lotion, concentrations from 10 through 869 μg/ml, Table 1c",effective in rapidly and effectively relieving pruritus
same,antipruritic effect (in words),"[2]; Vita Moist Cream diluted with Care Deeply Cream, 1.25 μg/ml and 0.5 μg/ml",some antipruritic effect but the effect was not complete nor was it rapid and sustained
same,antipruritic effect (in words),"[2]; Vita Moist Cream diluted with Care Deeply Cream, 2.5 and 5 μg/ml",rapid and complete alleviation of pruritus
same,antipruritic effect (in words),"[2]; corn oil vehicle, 1000 μg/ml, mean of two tests compared to vehicle control",no detectable antipruritic effect
same,"pruritic score, Mean","[2]; corn oil, 1000 μg/ml, mean of two tests, time 0 min",81 mm
same,"pruritic score, Mean","[2]; corn oil, 1000 μg/ml, mean of two tests, time 1 min",81 mm
same,"pruritic score, Mean","[2]; corn oil, 1000 μg/ml, mean of two tests, time 5 min",70 mm
same,"pruritic score, Mean","[2]; corn oil, 1000 μg/ml, mean of two tests, time 10 min",59 mm
same,pruritic score (100 mm visual analog scale),"[2]; corn oil, 1000 μg/ml, time 0 min, tests 1 and 2",80 mm and 81 mm
same,pruritic score (100 mm visual analog scale),"[2]; corn oil, 1000 μg/ml, time 1 min, tests 1 and 2",80 mm and 81 mm
same,pruritic score (100 mm visual analog scale),"[2]; corn oil, 1000 μg/ml, time 5 min, tests 1 and 2",81 mm and 58 mm
same,pruritic score (100 mm visual analog scale),"[2]; corn oil, 1000 μg/ml, time 10 min, tests 1 and 2",60 mm and 58 mm
same,lowest concentration found to have an anti-pruritic effect,[2]; non-aqueous vehicle,521 µg/mL
same,antipruritic effect (in words),"[2]; petroleum jelly vehicle, 521 μg/ml",an antipruritic effect
same,pruritic score (100 mm visual analog scale),"[2]; petroleum jelly, 521 μg/ml, time 0 min",72 mm
same,pruritic score (100 mm visual analog scale),"[2]; petroleum jelly, 521 μg/ml, time 1 min",11 mm
same,pruritic score (100 mm visual analog scale),"[2]; petroleum jelly, 521 μg/ml, time 5 min",10 mm
same,pruritic score (100 mm visual analog scale),"[2]; petroleum jelly, 521 μg/ml, time 10 min",9 mm
same,effective concentration,[2]; suspension of water and a dispersed phase,12.5 µg/mL
same,lowest effective concentration,[2]; water-based emulsion formulation,2.5 µg/mL
